Measured values from patent US20060002922A1, “Method for preventing or treating obesity by modulating the activities of the pentose phosphate patway” (Minkon Biotechnology, Inc., priority 2004, published 2006).

What was measured:
[1] = system: liver, heart and kidney of mice hosting Ehrlich's tumor; settings: 400 mg/kg/day of OT; cited from earlier work
[2] = system: C57BL/6 mice fed with D12492; assay: Diet-induced obesity in C57BL/6 mice fed high fat diet D12492, oral OT; type: in vivo
Method: D12492 is a very high fat containing diet (with 60 kcal % fat), and has been widely used to induce obesity in rodents.
A dose of 10-20 mg/kg/day of OT was administered orally to C57BL/6 mice fed with D12492. […] In contrast, the control mice developed obesity.
4 groups of C57BL/6 mice (5 mice each group) were used to test the dosage dependence of oxythiamine on weight control. The negative control was fed a regular diet, and positive group was fed a high fat diet only. Test groups were fed high fat diet and each orally administered with OT at a concentration of 2 mg/kg/day or 10 mg/kg/day.

[3] = system: tumors in animals; settings: 100-400 mg/kg of OT; cited from earlier work
[4] = system: normal as well as fatty mice; assay: Higher dosage of OT: weight loss in normal and fatty mice; type: in vivo
Text: This is consistent with the result obtained from the published result of TKT haplo-insufficiency mice.

Cc1ncc(C[n+]2csc(CCO)c2C)c(=O)[nH]1 [OT, Oxythiamine]
histotoxicity (signs of toxicity in liver, heart and kidney vs controls) [1]: No signs of toxicity were observed | development of diet-induced obesity ([2]; 10-20 mg/kg/day orally, C57BL/6 mice fed D12492, control mice developed obesity): Diet-induced obesity was not developed | pathological studies of OT treated mice ([2]; FIG. 1 study, high fat diet plus OT): near normal | progression of obesity development ([2]; OT as low as 2 mg/kg/day): reduce the progression of obesity development significantly | dosage dependence of prevention of weight gain ([2]; mice fed D12492, test groups 2 or 10 mg/kg/day orally): dosage dependent effects on preventing weight gain | growth rate compared to same age mice fed a standard diet ([2]; mice fed D12492 plus OT): normal growth rate | treatment of tumors in animals [3]: successfully used to treat tumors | effect on body weight ([4]; 180 mg/kg/day, normal as well as fatty mice): strong effect of weight loss | fat mass ([4]; OT fed mice): Preferential reduction of fat mass
